In ChEMBL document CHEMBL1201862, “PubChem BioAssay data set” (2004):
Calls of active or inactive are those of the source. Rule as the data show it, for most assays here: actives have a measured IC50 and inactives only a lower limit.

Columns and labels:
HEK293 [1] = assay: optical interference in Abeta FP readout, dose response, artefact control for IDE activator project, biochemical, fluorescence polarization (AID 588442); assay type: functional, cell-based; settings: Homo sapiens
Insulin-degrading enzyme [2] = molecular target: T1, Insulin-degrading enzyme (Homo sapiens, UniProt P14735); assay: activators of endogenous IDE in HEK cells, dose response, cell-based, fluorescence polarization (AID 588439); assay type: functional
T1 sequence (P14735 whole entry): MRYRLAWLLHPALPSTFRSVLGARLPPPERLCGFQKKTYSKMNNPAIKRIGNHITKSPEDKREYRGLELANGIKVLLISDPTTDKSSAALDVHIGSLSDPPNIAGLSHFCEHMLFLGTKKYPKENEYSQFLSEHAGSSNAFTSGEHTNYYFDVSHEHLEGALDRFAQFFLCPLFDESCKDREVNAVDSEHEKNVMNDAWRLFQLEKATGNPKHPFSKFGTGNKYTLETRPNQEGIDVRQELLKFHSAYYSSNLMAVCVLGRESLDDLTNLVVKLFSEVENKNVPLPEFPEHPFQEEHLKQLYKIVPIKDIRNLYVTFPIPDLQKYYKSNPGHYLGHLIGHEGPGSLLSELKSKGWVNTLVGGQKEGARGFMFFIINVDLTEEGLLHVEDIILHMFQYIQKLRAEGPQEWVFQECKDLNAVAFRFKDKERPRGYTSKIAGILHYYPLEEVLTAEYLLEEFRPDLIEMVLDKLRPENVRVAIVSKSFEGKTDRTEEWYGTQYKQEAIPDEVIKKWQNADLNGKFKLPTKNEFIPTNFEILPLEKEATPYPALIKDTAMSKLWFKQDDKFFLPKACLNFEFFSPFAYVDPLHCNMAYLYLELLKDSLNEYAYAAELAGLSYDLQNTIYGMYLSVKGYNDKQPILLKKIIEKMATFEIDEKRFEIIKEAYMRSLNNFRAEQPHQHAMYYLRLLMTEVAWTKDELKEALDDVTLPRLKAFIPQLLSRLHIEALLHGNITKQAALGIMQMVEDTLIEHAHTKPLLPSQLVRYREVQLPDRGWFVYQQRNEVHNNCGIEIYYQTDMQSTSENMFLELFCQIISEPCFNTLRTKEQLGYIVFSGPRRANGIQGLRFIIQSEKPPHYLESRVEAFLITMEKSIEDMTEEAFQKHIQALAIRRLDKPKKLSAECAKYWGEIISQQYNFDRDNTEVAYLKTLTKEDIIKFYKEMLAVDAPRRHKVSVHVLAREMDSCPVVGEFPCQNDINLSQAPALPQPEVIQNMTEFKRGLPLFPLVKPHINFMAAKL

Insulin-degrading enzyme [3] = molecular target: T1, Insulin-degrading enzyme; assay: activators of recombinant IDE enzyme, dose response, counter-screen for IDE activator project, biochemical, fluorescence polarization (AID 588681)
HEK293 [4] = assay: HEK cell cytotoxicity by LDH release, dose response, cytotoxicity control for IDE activator project, fluorescence, HEK cells (AID 588440); assay type: functional, cell-based; settings: Homo sapiens;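 also: cytotoxicity by LDH release measuring loss of membrane integrity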
[5] = molecular target: T2, Heat shock factor protein 1 (Mus musculus, UniProt P38532); assay: inhibition of MG132-induced HSE-luciferase signal, confirmation, cell-based, NIH3T3, luminescence, dose retest (AID 2382); assay type: functional;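 also: NIH3T3 fibroblasts with HSF1-driven luciferase reporter stressed by proteasome inhibitor MG132; luminescence from HSF1-driven luciferase expression after 8 hours of MG132 stress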
T2 sequence (P38532 whole entry): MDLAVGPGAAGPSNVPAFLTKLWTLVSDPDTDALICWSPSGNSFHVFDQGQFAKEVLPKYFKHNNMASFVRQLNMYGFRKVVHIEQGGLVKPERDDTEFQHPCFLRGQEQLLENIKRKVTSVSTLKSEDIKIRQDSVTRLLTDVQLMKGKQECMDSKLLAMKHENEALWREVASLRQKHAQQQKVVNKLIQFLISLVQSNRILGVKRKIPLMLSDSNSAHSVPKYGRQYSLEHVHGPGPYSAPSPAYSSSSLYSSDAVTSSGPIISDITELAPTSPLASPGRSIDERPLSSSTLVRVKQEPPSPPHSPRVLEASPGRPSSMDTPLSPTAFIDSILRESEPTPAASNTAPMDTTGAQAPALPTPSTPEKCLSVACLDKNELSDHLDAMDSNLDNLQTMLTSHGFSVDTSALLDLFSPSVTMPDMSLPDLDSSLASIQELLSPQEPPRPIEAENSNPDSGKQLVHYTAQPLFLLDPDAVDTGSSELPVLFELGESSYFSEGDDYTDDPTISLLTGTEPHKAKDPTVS

[6] = molecular target: T3, Sentrin-specific protease 8 (Homo sapiens, UniProt Q96LD8); assay type: functional;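 also: luminescence read-out of SENP8 inhibition, dose-response confirmation following an ultra-high-throughput screen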
T3 sequence (Q96LD8 whole entry): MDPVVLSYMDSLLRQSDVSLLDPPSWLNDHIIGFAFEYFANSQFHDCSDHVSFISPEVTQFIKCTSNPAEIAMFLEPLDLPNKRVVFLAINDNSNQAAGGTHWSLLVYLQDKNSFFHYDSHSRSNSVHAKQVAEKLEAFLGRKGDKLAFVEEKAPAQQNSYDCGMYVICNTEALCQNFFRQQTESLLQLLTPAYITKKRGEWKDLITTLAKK

[7] = molecular target: T4, Sentrin-specific protease 7 (Homo sapiens, UniProt Q9BQF6); assay: SENP7 protease inhibitors, SAR follow-up, biochemical, luminescence (AID 504497); assay type: functional
T4 sequence (Q9BQF6 whole entry): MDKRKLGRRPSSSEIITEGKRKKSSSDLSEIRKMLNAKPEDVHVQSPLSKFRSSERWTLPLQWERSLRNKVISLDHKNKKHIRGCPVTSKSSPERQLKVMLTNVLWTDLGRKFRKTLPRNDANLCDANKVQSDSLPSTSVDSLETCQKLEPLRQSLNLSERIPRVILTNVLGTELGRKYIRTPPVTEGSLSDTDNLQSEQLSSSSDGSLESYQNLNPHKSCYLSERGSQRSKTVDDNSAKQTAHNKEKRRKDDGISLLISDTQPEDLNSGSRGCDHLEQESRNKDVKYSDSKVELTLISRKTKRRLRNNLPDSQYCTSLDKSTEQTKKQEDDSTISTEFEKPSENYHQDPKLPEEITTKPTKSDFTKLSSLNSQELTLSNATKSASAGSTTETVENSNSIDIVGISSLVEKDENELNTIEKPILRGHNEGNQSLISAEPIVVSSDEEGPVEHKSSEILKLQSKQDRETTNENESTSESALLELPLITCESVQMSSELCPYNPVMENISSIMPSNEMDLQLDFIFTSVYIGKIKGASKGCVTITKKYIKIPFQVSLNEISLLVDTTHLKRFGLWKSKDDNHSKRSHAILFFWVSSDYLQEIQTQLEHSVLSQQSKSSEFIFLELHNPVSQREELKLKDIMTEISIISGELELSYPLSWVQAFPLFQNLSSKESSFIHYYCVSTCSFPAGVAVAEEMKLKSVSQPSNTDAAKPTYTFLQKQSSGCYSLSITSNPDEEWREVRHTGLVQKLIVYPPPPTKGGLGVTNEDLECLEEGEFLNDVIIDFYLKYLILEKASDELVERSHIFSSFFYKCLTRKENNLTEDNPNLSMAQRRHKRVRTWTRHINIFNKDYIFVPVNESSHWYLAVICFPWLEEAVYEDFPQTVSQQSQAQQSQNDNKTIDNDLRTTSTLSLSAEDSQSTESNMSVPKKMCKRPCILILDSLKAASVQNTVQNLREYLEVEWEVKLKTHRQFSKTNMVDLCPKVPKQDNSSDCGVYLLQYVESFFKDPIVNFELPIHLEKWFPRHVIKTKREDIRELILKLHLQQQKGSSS

Caspase-3 [8] = molecular target: T5, Caspase-3 (Homo sapiens, UniProt P42574); assay type: functional
T5 sequence (P42574 whole entry): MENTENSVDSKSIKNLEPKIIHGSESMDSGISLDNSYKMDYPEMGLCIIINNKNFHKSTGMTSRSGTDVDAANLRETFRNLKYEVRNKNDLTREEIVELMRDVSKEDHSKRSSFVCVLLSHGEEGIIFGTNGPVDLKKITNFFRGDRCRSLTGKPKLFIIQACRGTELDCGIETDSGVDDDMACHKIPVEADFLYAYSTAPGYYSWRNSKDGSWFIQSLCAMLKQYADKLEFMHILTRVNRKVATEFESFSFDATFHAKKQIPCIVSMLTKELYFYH

[9] = molecular target: T6, Sentrin-specific protease 6 (Homo sapiens, UniProt Q9GZR1); assay type: functional
T6 sequence (Q9GZR1 whole entry): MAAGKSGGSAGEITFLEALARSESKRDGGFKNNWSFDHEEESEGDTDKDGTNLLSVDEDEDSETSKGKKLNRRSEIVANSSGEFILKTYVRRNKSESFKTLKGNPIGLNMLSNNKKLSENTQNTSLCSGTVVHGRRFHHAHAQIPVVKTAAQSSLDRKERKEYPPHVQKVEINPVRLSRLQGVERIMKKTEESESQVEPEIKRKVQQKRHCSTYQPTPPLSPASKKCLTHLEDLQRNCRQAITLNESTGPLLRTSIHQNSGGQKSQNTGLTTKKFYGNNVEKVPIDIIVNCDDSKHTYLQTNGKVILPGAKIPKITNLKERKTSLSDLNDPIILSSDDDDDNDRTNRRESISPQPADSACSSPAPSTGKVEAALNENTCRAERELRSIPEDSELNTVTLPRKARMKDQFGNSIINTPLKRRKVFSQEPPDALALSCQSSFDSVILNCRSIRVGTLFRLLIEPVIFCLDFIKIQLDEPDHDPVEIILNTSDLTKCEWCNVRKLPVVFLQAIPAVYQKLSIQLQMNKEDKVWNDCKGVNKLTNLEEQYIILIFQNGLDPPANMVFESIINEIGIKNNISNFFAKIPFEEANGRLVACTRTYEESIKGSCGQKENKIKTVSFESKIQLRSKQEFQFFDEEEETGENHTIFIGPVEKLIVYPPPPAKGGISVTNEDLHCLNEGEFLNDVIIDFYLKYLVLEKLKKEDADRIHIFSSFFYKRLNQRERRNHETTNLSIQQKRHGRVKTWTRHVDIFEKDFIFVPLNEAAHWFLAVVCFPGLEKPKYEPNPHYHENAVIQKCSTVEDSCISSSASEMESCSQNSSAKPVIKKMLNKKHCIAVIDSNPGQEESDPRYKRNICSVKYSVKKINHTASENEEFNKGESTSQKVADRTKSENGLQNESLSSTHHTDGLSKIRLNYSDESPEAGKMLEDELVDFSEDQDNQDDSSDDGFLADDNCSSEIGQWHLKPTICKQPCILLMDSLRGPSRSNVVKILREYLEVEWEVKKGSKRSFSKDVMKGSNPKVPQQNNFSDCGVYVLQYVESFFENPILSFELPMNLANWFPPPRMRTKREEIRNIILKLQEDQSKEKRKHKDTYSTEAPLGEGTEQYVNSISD

[10] = molecular target: T3, Sentrin-specific protease 8; assay: SENP8 protease inhibitors, SAR follow-up, biochemical, luminescence (AID 504501); assay type: functional
HT-1080 = assay: cytotoxicity in HT1080 fibrosarcoma cells, cell-based, fluorescence readout (AID 620); assay type: functional; settings: Homo sapiens
[11] = molecular target: Luciferin 4-monooxygenase (Photinus pyralis, UniProt P08659); assay: Counter Screen for Luciferase-based Assay Positives. [Related pubchem assays: 620, 618, 411 ]
Chain of Luciferin 4-monooxygenase (P08659 whole entry): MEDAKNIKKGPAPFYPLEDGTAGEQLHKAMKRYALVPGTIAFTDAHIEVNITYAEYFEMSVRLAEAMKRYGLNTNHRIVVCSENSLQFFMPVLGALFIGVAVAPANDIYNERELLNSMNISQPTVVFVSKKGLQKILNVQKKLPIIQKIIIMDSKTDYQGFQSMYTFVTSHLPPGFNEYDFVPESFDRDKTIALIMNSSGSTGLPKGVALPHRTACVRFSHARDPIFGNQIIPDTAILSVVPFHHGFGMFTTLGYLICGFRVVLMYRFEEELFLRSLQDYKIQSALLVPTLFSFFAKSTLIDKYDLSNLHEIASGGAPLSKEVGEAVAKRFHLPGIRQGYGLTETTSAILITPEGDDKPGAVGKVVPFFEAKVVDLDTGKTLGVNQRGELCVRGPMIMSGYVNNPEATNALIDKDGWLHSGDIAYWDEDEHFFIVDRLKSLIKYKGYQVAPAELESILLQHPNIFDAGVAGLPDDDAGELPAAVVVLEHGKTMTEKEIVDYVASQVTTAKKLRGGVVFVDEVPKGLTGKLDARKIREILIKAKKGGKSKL

Caspase-3 [12] = molecular target: T5, Caspase-3; assay: SAR Analysis of small molecule inhibitors of Sentrin-specific proteases (SENPs) using a Caspase-3 Selectivity assay. [Related pubchem assays (depositor defined):AID2540, AID2599, AID434973, AID489001]; assay type: functional
[13] = molecular target: T6, Sentrin-specific protease 6; assay: SAR Analysis of small molecule inhibitors of Sentrin-specific protease 6 (SENP6) using a Luminescent assay. [Related pubchem assays (depositor defined):AID2582, AID2599]; assay type: functional
[14] = molecular target: T4, Sentrin-specific protease 7; assay type: functional

Row | Compound | EC50 (HEK293 [1]) | EC50 (Insulin-degrading enzyme [2]) | EC50 (Insulin-degrading enzyme [3]) | IC50 (HEK293 [4]) | EC50 [5] | IC50 [6] | IC50 [7] | IC50 (Caspase-3 [8]) | IC50 [9] | IC50 [10] | EC50 (HT-1080) | EC50 [11] | IC50 (Caspase-3 [12]) | IC50 [13] | IC50 [14]
1 | Cc1ccc2nc(N(CCCN(C)C)C(=O)COc3ccc(Cl)cc3)sc2c1 | > 54.7 µM (inactive) | > 54.7 µM (inactive) | > 54.7 µM (inactive) | 46.4 µM (inactive) |  |  |  |  |  |  |  |  |  |  | 
2 | CC(=O)N(/N=C1\Sc2ccccc2C1=O)c1ccc(C)cc1C |  |  |  |  | < 0.16 µM (active) | 86.8 µM (active) | 23.3 µM (active) | 33 µM (active) | 7.1 µM (active) | 13 µM (active) | > 50 µM (not active) | < 0.2 µM (active) | 7.42 µM (active) | 5.49 µM (active) | 21.5 µM (active)
